Experimental data taken from patent publication US9695178B2, “6-(2-pyridyl)-7,8-dihydro-5H-pyrido[4,3-D]pyrimidine analogs as hedgehog pathway signaling inhibitors and therapeutic applications thereof” (Suzhou Yunxuan Yiyao Keji Youxian Gongsi, priority 2013, dated 2017).

Target: Smo (Homo sapiens, UniProt Q99835)
Experiment: Bodipy-Cyclopamine Binding Assay (confirmation assay), Hek293-SMO cells
Description: The confirmation assay is based on Bodipy-Cyclopamine Binding Assay:
Bodipy-Cyclopamine binding assay is a fluorescence based assay used to analysis the binding of Smo agonists. […] Bodipy-Cyclopamine was purchased from Toronto Research Chemicals and dissolved in methanol.
Hek293-SMO cells were plated in 96-well-plate (3340, Corning), the final cell concentration is 15,000 cells/well in 100 ul 1% serum-containing DMEM. The plates were incubated in 37 degree for additional 48 hours.
Hek293-SMO plate were washed with PBS and fixed with 4% paraformaldehyde (PFA)/PBS for 20 min at room temperature. After removing the PFA buffer, the cells were incubated with DAPI/PBS (5 ug/mL) for 10 min and followed by twice wash with PBS. After wash, cells were incubated for 2 h at room temperature in binding buffer (HBSS W/O Ca^2+ and Mg^2+) containing 100 nM bodipy-cyclopamine and compounds over a range of concentrations from 0-10 μM for competitive binding. After incubation, the cells were washed twice with the PBS. The fluorescence images were automatically captured and analyzed by a high content fluorescence imaging system (Arrayscan VTI, Thermo). GDC-0449 was used as reference compound to normalize the data. IC50 values were calculated with GraphPad Prism software using the sigmoidal dose-response function. The Ki was calculated following the Cheng-Prusoff equation, as Ki=IC50/[1+[bodipy-cyclopamine]/Kd)].

Smo, sequence (Q99835 28-787): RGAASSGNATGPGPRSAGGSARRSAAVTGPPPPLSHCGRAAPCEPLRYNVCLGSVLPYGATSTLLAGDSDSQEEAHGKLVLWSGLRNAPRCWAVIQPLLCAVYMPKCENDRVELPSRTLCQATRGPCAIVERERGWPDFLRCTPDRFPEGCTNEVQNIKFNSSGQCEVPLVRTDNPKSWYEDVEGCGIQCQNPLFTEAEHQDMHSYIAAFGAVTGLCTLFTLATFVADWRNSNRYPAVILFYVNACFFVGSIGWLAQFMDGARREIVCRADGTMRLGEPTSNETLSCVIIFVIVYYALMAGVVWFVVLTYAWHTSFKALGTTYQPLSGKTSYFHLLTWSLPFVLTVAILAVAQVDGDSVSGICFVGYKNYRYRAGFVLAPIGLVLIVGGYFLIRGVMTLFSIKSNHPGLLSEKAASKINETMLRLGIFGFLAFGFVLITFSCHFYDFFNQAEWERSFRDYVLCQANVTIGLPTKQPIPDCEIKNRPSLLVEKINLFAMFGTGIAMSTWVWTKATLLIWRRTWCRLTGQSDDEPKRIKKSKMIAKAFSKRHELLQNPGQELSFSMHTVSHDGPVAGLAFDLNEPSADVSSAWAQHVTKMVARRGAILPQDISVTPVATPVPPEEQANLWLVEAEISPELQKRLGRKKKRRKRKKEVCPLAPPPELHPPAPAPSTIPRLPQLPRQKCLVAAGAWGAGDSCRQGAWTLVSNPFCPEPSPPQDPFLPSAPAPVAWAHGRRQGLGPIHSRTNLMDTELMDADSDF

Clc1cnc(N2CCc3nc(NC4CC4)ncc3C2)cc1-c1ccccn1 [Compound A-113, 6-(5′-chloro-2,4′-bipyridin-2′-yl)-N-cyclopropyl-5,6,7,8-tetrahydropyrido-[4,3-d]pyrimidin-2-amine]
IC50: 470 nM
